For 27 molecules, IC50 and melting point results are on record in US6667335B2, “Imidazole derivatives” (Hoffmann-La Roche Inc., priority 2001, dated 2003).

Where only a bound is given, the exact number is not on record here.

One data set has as its target T1, NMDA-receptor subtype 2B (Rattus norvegicus, UniProt P35439+Q00960).
T1 construct: Membranes were prepared by homogenization of the whole brain minus cerebellum and medulla oblongata; from tissue; host or cells: rat whole brain minus cerebellum and medulla oblongata, membrane preparation
Put plainly: 3H-Ro 25-6981 binding (displacement) on rat brain membranes. Conditions: displacement of 5 nM 3H-Ro 25-6981, rat whole brain membranes (minus cerebellum and medulla oblongata), 2 hours at 4° C. How it is done:
^3H[R-(R*,S*)]-(α-(4-Hydroxy-phenyl)-β-methyl-4-(phenyl-methyl)-1-piperidine propanol)binding
Male Füllinsdorf albino rats weighing between 150-200 g were used. Membranes were prepared by homogenization of the whole brain minus cerebellum and medulla oblongata with a Polytron (10.000 rpm, 30 seconds), in 25 volumes of a cold Tris-HCl 50 mM, EDTA 10 mM, pH 7.1 buffer. The homogenate was centrifuged at 48,000 g for 10 minutes at 4° C. The pellet was resuspended using the Polytron in the same volume of buffer and the homogenate was incubated at 37° C. for 10 minutes. After centrifugation the pellet was homogenized in the same buffer and frozen at −80° C. for at least 16 hours but not more than 10 days. For the binding assay the homogenate was thawed at 37° C., centrifuged and the pellet was washed three times as above in a Tris-HCl 5 mM, pH 7.4 cold buffer. The final pellet was resuspended in the same buffer and used at a final concentration of […]. ^3H-Ro 25-6981 binding experiments were performed using a Tris-HCl 50 mM, pH 7.4 buffer. For displacement experiments 5 nM of ^3H-Ro 25-6981 were used and non specific binding was measured using 10 mM of tetrahydroisoquinoline and usually it accounts for 10% of the total. The incubation time was 2 hours at 4° C. and the assay was stopped by filtration on Whatmann GF/B glass fiber filters (Unifilter-96, Packard, Zürich, Switzerland). The filters were washed 5 times with cold buffer. The radioactivity on the filter was counted on a Packard Top-count microplate scintillation counter after addition of […] of microscint 40 (Canberra Packard S.A., Zuirich, Switzerland).
The effects of compounds were measured using a minimum of 8 concentrations and repeated at least once.

T1 sequence (Q00960 27-1482, other chains not shown): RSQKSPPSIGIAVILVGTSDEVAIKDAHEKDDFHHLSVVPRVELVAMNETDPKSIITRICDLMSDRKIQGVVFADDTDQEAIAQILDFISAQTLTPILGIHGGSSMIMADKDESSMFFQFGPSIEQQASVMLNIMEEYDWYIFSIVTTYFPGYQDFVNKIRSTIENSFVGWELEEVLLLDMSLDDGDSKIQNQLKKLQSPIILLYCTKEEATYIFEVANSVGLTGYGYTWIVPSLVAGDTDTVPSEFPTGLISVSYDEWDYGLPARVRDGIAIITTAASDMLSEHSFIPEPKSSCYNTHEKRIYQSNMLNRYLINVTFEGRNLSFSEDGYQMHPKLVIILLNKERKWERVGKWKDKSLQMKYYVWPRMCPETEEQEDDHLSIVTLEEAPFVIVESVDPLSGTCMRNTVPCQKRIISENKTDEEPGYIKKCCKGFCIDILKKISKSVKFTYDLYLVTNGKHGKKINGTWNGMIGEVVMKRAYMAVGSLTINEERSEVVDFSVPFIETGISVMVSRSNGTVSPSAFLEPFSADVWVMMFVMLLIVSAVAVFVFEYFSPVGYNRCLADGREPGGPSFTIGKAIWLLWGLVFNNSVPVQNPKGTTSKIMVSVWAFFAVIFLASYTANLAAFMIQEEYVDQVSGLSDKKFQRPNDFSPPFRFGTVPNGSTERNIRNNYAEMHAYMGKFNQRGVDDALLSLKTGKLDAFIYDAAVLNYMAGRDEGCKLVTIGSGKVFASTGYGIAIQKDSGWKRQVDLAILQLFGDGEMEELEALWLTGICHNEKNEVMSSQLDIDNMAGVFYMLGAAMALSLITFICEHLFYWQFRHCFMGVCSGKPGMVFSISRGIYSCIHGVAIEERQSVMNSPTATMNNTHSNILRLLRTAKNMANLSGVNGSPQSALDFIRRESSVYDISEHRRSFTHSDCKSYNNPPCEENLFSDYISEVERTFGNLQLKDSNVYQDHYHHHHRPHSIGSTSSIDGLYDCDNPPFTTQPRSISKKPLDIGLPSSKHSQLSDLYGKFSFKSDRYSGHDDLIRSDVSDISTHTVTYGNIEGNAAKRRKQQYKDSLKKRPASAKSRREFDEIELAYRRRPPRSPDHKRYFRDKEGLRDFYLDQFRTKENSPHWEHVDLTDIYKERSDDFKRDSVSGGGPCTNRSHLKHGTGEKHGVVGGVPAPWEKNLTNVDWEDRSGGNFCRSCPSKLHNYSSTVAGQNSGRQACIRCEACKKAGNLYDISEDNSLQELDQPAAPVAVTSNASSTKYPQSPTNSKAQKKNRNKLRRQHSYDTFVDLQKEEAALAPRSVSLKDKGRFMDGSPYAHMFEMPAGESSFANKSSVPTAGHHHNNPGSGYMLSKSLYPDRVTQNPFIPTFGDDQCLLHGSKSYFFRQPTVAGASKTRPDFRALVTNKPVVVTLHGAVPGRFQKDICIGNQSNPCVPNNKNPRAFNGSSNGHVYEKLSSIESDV

Regarding `CCc1nccn1Cc1cn(-c2cc(F)cc(C(F)(F)F)c2)cn1.Cl.Cl` [Example 177, 1H-Imidazole, 2-Ethyl-1-[[1-[3-fluoro-5(trifluoromethyl)phenyl]-1H-imidazol-4-yl]methyl]-, Hydrochloride (1:2)], the melting point is 243 to 244 °C. The molecule also had an IC50 at NMDA-receptor subtype 2B of 37.5 nM.

For `Cc1cc(-n2cnc(Cn3cnc(C)c3C)c2)ccc1Cl.Cl.Cl` [Example 13, 1H-Imidazole, 1-[[1-(4-Chloro-3-methylphenyl)-1H-imidazol-4-yl]methyl]-4,5-dimethyl-, Hydrochloride (1:2)], the melting point is over 250 °C. This molecule also displayed an IC50 at NMDA-receptor subtype 2B of 95 nM.

The molecule `Cc1nccn1Cc1cn(-c2ccc(Cl)cc2)cn1.Cl.Cl` [Example 48, 1H-Imidazole, 1-[[1-(4-Chlorophenyl)-1H-imidazol-4-yl]methyl]-2-methyl-, Hydrochloride (1:2)] showed a melting point of 243 to 244 °C. Further, the half-inhibitory concentration (IC50) at NMDA-receptor subtype 2B was 61 nM.

Consider `Cc1nccn1Cc1cn(-c2cccc(C(C)(F)F)c2)cn1.Cl.Cl` [Example 147, 1H-Imidazole, 1-[[1-[3-(1,1-Difluoroethyl)phenyl]-1H-imidazol-4-yl]methyl]-2-methyl-, Hydrochloride (1:2)], for which the melting point is > 200 °C (dec.). The molecule also registered an IC50 at NMDA-receptor subtype 2B of 9.2 nM.

With `CCNc1nccn1Cc1cn(-c2ccc(Cl)c(Cl)c2)cn1.Cl.Cl` [Example 111, {1-[1-(3,4-Dichloro-phenyl)-1H-imidazol-4-yl-methyl]-1H-imidazol-2-yl}-ethyl-amine Hydrochloride (1:2)], the melting point is over 250 °C. This molecule also returned an IC50 at NMDA-receptor subtype 2B of 11 nM.

Molecule `Cc1cc(-n2cnc(Cn3ccnc3C)c2)ccc1F.Cl.Cl` [Example 24, 1H-Imidazole, 1-[[1-(4-Fluoro-3-methylphenyl)-1H-imidazol-4-yl]methyl]-2-methyl-, Hydrochloride (1:2)] registered a melting point of 210 to 212 °C. The same molecule yielded an IC50 at NMDA-receptor subtype 2B of 16 nM.

The molecule `CCc1nccn1Cc1cn(-c2ccc(Cl)c(Cl)c2)cn1.Cl.Cl` [Example 3, 1H-Imidazole, 1-[[1-(3,4-Dichlorophenyl)-1H-imidazol-4-yl]methyl]-2-ethyl-, Hydrochloride (1:2)] returned a melting point of over 250 °C. On NMDA-receptor subtype 2B, this molecule registered an IC50 of 12 nM.

On to `CCc1nccn1Cc1cn(-c2ccc(OC)c(Cl)c2)cn1.Cl.Cl` [Example 58, 1H-Imidazole, 1-[[1-(3-Chloro-4-methoxyphenyl)-1H-imidazol-4-yl]methyl]-2-ethyl-, Hydrochloride (1:2)], for which the melting point fell in the range of 220 to 221 °C. Further, at NMDA-receptor subtype 2B, the IC50 came out at 93 nM.

In turn, `OCc1nccn1Cc1cn(-c2ccc(Cl)c(Cl)c2)cn1` [Example 109, {1-[1-(3,4-Dichloro-phenyl)-1H-imidazol-4-yl-methyl]-1H-imidazol-2-yl}-methanol] gave a melting point of 202 to 203 °C. On NMDA-receptor subtype 2B, this molecule had an IC50 of 85 nM.

Consider `Cc1cc(-n2cnc(Cn3ccnc3)c2)ccc1Cl.Cl.Cl` [Example 12, 1H-Imidazole, 1-(4-Chloro-3-methylphenyl)-4-(1H-imidazol-1-yl-methyl)-, Hydrochloride (1:2)], for which the melting point was 206 to 207 °C. The molecule further displayed an IC50 at NMDA-receptor subtype 2B of 8 nM.

As to `CCCc1nccn1Cc1cn(-c2ccc(Cl)c(Cl)c2)cn1.Cl.Cl` [Example 1, 1H-Imidazole, 1-[[1-(3,4-Dichlorophenyl)-1H-imidazol-4-yl]methyl]-2-propyl-, Hydrochloride (1:2)], the melting point is 241 to 243 °C. The IC50 at NMDA-receptor subtype 2B is 7 nM.

In the case of `CCc1cccc(-n2cnc(Cn3ccnc3C)c2)c1.Cl.Cl` [Example 159, 1H-Imidazole, 1-[[1-(3-Ethylphenyl)-1H-imidazol-4-yl]methyl]-2-methyl-, Hydrochloride (1:2)], the melting point was > 200 °C (dec.). Besides, the IC50 on NMDA-receptor subtype 2B worked out at 14 nM.

As to `CCc1nccn1Cc1cn(-c2ccc(Cl)c(C)c2)cn1.Cl.Cl` [Example 10, 1H-Imidazole, 1-[[1-(4-Chloro-3-methylphenyl)-1H-imidazol-4-yl]methyl]-2-ethyl-, Hydrochloride (1:2)], the melting point was 186 to 187 °C. Further, on NMDA-receptor subtype 2B, the IC50 is 4 nM.

In turn, `Cc1nccn1Cc1cn(-c2ccc(F)c(Cl)c2)cn1.Cl.Cl` [Example 93, 1H-Imidazole, 1-[[1-(3-Chloro-4-fluorophenyl)-1H-imidazol-4-yl]methyl]-2-methyl-, Hydrochloride (1:2)] had a melting point of 224 to 225 °C. On NMDA-receptor subtype 2B, this molecule showed an IC50 of 20 nM.

Turning to `Cc1ccc(-n2cnc(Cn3ccnc3C)c2)cc1C(F)(F)F.Cl.Cl` [Example 39, 1H-Imidazole, 2-Methyl-1-[[1-[4-methyl-3-(trifluoromethyl)phenyl]-1H-imidazol-4-yl]methyl]-, Hydrochloride (1:2)], the melting point was > 235 °C (dec.). Moreover, the IC50 at NMDA-receptor subtype 2B turned out to be 43 nM.

`Cc1ccc(-n2cnc(Cn3ccnc3C)c2)cc1Cl.Cl.Cl` [Example 87, 1H-Imidazole, 1-[[1-(3-Chloro-4-methylphenyl)-1H-imidazol-4-yl]methyl]-2-methyl-, Hydrochloride (1:2)] showed a melting point of 242 to 243 °C. The IC50 on NMDA-receptor subtype 2B came to 17 nM.

In turn, `Cc1ccc(-n2cnc(Cn3ccnc3)c2)cc1Cl.Cl.Cl` [Example 89, 1H-Imidazole, 1-(3-Chloro-4-methylphenyl)-4-(1H-imidazol-1-yl-methyl)-, Hydrochloride (1:2)] returned a melting point of 218 to 220 °C. In addition, the IC50 at NMDA-receptor subtype 2B is 48 nM.

`Cc1nccn1Cc1cn(-c2ccc(F)c(C(C)(F)F)c2)cn1.Cl.Cl` [Example 149, 1H-Imidazole, 1-[[1-[3-(1,1-Difluoroethyl)-4-fluorophenyl]-1H-imidazol-4-yl]methyl]-2-methyl-, Hydrochloride (1:2)]: the melting point was > 200 °C (dec.). Also, the IC50 at NMDA-receptor subtype 2B came to 8.2 nM.

For `CCc1nccn1Cc1cn(-c2ccc3c(c2)CCC3)cn1.Cl.Cl` [Example 17, 1H-Imidazole, 1-[[1-(2,3-Dihydro-1H-inden-5-yl)-1H-imidazol-4-yl]methyl]-2-ethyl-, Hydrochloride (1:2)], the melting point was in the range of 240 to 241 °C. At NMDA-receptor subtype 2B, this molecule had a 50% inhibitory concentration (IC50) of 12 nM.

With `Cc1cc(-n2cnc(Cn3ccnc3C)c2)ccc1Cl.Cl.Cl` [Example 11, 1H-Imidazole, 1-[[1-(4-Chloro-3-methylphenyl)-1H-imidazol-4-yl]methyl]-2-methyl-, Hydrochloride (1:2)], the melting point lay in the range of 218 to 220 °C. Further, the IC50 on NMDA-receptor subtype 2B is 5 nM.

Turning to `CCc1nccn1Cc1cn(-c2ccc(F)c(Br)c2)cn1.Cl.Cl` [Example 156, 1H-Imidazole, 1-[[1-(3-Bromo-4-fluorophenyl)-1H-imidazol-4-yl]methyl]-2-ethyl-, Hydrochloride (1:2)], the melting point lay in the range of 238 to 239 °C. In addition, the 50% inhibitory concentration (IC50) at NMDA-receptor subtype 2B is 14 nM.

`Cc1nccn1Cc1cn(-c2cccc(SC(F)(F)F)c2)cn1.Cl.Cl` [Example 144, 1H-Imidazole, 2-Methyl-1-[[1-[3-(trifluoromethylthio)phenyl]-1H-imidazol-4-yl]methyl]-, Hydrochloride (1:2)] displayed a melting point of 169 to 170 °C. The molecule also had an IC50 at NMDA-receptor subtype 2B of 38 nM.

With `CC(C)c1nccn1Cc1cn(-c2ccc(Cl)c(Cl)c2)cn1.Cl.Cl` [Example 4, 1H-Imidazole, 1-[[1-(3,4-Dichlorophenyl)-1H-imidazol-4-yl]methyl]-2-(1-methylethyl)-, Hydrochloride (1:2)], the melting point is 236 to 238 °C (dec.). At NMDA-receptor subtype 2B, this molecule showed an IC50 of 17 nM.

Take `CCc1cccc(-n2cnc(Cn3ccnc3)c2)c1.Cl.Cl` [Example 161, 1-(3-Ethyl-phenyl)-4-imidazol-1-ylmethyl-1H-imidazole Hydrochloride (1:2)]: the melting point is > 190 °C (dec.). Moreover, at NMDA-receptor subtype 2B, the IC50 was found to be 50 nM.

As to `CCc1nccn1Cc1cn(-c2cccc(C(C)(F)F)c2)cn1.Cl.Cl` [Example 146, 1H-Imidazole, 1-[[1-[3-(1,1-Difluoroethyl)phenyl]-1H-imidazol-4-yl]methyl]-2-ethyl-, Hydrochloride (1:2)], the melting point was 130 to 134 °C (dec.). Further, the IC50 on NMDA-receptor subtype 2B came out at 8 nM.

In turn, `Cc1nccn1Cc1cn(-c2ccc(F)c(Br)c2)cn1.Cl.Cl` [Example 157, 1H-Imidazole, 1-[[1-(3-Bromo-4-fluorophenyl)-1H-imidazol-4-yl]methyl]-2-methyl-, Hydrochloride (1:2)] registered a melting point of 232 to 233 °C. Besides, the concentration for half-maximal inhibition (IC50) at NMDA-receptor subtype 2B is 14 nM.

`Cl.Cl.Fc1ccc(-n2cnc(Cn3ccnc3)c2)cc1Br` [Example 158, 1-(3-Bromo-4-fluoro-phenyl)-4-imidazol-1-ylmethyl-1H-imidazole Hydrochloride (1:2)] had a melting point of 229 to 230 °C. At NMDA-receptor subtype 2B, this molecule registered an IC50 of 41 nM.

The term IC50 denotes the concentration needed to halve the response being measured. Low values mean inhibition by little substance, high ones a need for much substance. Usually melting point stands for the temperature of the solid-liquid transition.
